# Assay results reported in ChEMBL document CHEMBL2434911, “Flavone-based analogues inspired by the natural product simocyclinone D8 as DNA gyrase inhibitors” (Bioorg Med Chem Lett, 2013).
# pIC50: −log10 of the molar value. Active and inactive are the calls of the source. No cut-off for these calls is given here.
# Key:
# [1] = system: Escherichia coli; assay: Inhibition of cleavage activity of Escherichia coli DNA gyrase using relaxed pBR322 as substrate at 200 uM after 10 mins by agarose gel electrophoresis analysis relative to control
# [2] = target: T1, DNA topoisomerase 2-alpha (Homo sapiens, UniProt P11388); assay: Inhibition of human topoisomerase 2 using […] as substrate after 10 mins by decatenation assay
# T1 sequence (P11388 whole entry): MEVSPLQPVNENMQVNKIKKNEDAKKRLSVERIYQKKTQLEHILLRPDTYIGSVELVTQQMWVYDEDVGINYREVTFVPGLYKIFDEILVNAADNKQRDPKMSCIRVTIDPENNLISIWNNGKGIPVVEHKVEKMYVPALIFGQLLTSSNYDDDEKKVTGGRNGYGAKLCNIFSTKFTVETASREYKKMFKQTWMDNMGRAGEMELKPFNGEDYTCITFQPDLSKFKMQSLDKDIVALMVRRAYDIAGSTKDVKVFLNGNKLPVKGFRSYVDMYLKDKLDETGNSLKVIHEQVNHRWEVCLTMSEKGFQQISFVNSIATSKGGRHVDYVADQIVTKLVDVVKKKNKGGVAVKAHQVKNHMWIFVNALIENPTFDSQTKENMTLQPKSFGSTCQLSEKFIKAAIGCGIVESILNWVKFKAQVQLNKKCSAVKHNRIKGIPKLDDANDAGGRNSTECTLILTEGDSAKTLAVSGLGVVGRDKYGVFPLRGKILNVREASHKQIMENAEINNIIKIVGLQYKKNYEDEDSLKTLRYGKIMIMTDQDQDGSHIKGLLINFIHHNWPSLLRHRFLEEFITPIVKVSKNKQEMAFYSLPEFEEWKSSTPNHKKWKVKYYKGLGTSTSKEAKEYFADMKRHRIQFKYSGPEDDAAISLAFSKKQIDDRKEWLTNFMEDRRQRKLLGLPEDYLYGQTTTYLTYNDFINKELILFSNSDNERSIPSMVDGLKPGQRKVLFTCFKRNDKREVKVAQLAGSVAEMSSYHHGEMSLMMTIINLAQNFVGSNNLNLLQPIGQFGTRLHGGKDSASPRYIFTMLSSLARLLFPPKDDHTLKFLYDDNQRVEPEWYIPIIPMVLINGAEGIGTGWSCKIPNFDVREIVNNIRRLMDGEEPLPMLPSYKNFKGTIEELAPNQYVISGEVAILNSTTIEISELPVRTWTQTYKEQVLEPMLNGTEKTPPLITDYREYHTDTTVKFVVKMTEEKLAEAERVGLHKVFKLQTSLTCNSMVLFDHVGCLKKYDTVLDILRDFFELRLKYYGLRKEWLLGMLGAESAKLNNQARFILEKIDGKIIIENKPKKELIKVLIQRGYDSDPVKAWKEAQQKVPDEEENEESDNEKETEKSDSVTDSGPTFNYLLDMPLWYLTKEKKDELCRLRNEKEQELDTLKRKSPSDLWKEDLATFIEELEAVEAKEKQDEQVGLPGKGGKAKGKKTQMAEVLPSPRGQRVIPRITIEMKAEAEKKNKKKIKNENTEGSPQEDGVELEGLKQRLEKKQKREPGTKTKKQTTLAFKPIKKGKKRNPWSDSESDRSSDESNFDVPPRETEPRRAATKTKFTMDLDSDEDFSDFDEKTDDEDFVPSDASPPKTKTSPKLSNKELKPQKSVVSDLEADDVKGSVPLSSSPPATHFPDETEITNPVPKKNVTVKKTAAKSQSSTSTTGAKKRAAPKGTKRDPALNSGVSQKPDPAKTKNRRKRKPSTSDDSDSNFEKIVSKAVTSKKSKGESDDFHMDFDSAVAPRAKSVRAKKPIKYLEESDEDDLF
# [3] = system: Escherichia coli; assay: Inhibition of Escherichia coli DNA gyrase interaction to 5'-biotinylated DNA after 4 mins by surface plasmon resonance analysis
# [4] = species on record: Bos taurus; assay: Inhibition of supercoiling activity of calf thymus topoisomerase 1 using […] as substrate after 15 mins by ethidium bromide staining
# [5] = target: T1, DNA topoisomerase 2-alpha; assay: Inhibition of cleavage activity of human topoisomerase 2 using relaxed pBR322 as substrate at 200 uM after 10 mins by agarose gel electrophoresis analysis relative to control
# [6] = Inhibition of supercoiling activity of Escherichia coli DNA gyrase using relaxed pBR322 as substrate after 15 mins by ethidium bromide staining
Structure (SMILES),fold change (FC) [1],pIC50 [2],inhibition [3],inhibition [4],fold change (FC) [5],pIC50 [6]
O=C(CCCCCC(=O)Oc1c(-c2ccc(O)c(O)c2)oc2cc(O)cc(O)c2c1=O)NCC(=O)Nc1ccc(O)cc1,5,< 3.70,inactive,Active,2.4,4.07
COC(=O)/C=C/C=C/C=C/C=C/C(=O)Nc1c(O)c2ccc(O)c(Cl)c2oc1=O,–,–,–,–,–,4.30
O=C(CCCCCC(=O)Oc1c(-c2ccc(O)c(O)c2)oc2cc(O)cc(O)c2c1=O)NCC(=O)Nc1ccc(CO)cc1,3,< 3.70,–,inactive,2.1,< 3.70
O=C(CCCCCC(=O)Oc1c(-c2ccc(O)c(O)c2)oc2cc(O)cc(O)c2c1=O)NCC(=O)Nc1ccccc1,7.8,3.83,inactive,Active,2.7,4.31
O=C(CCCCCC(=O)Oc1c(-c2ccc(O)c(O)c2)oc2cc(O)cc(O)c2c1=O)NCC(=O)Nc1ccc(O)c(CO)c1,1.9,4.10,–,inactive,< 1,< 3.70
CC(=O)O[C@@H]1[C@@H](C)O[C@@H](c2ccc3c(c2O)[C@@H](O)[C@]24O[C@@]2(C3=O)[C@@]2(O)C(=O)C=C(C)C[C@@]2(O)C[C@@H]4O)C[C@H]1OC(=O)/C=C/C=C/C=C/C=C/C(=O)Nc1c(O)c2ccc(O)c(Cl)c2oc1=O [SIMOCYCLINONE D8],< 1,–,–,–,–,6.39
COC(=O)CCCCCCCCC(=O)Oc1c(-c2ccc(O)c(O)c2)oc2cc(O)cc(O)c2c1=O,< 1,< 3.70,–,inactive,< 1,< 3.70
O=c1c(O)c(-c2ccc(O)c(O)c2)oc2cc(O)cc(O)c12,–,–,–,Active,–,–
O=C(O)Cc1ccc(NC(=O)CNC(=O)CCCCCC(=O)Oc2c(-c3ccc(O)c(O)c3)oc3cc(O)cc(O)c3c2=O)cc1,1.8,< 3.70,–,inactive,< 1,< 3.70
